Test results reported in patent US20170027967A1, “PHARMACEUTICAL FORMULATIONS” (priority 2015, published 2017).
Where two headings read alike, the source gives them in different places.

Settings: 40° C./75% RH open, 60° C. closed
Procedure: Studies were conducted to assess the stability of tenofovir alafenamide hemifumarate in the presence of (a) emtricitabine, and (b) emtricitabine and rilpivirine HCl.

CC(C)OC(=O)[C@H](C)N[P@](=O)(CO[C@H](C)Cn1cnc2c(N)ncnc21)Oc1ccccc1 [tenofovir alafenamide hemifumarate]
rate of degradation of tenofovir alafenamide hemifumarate (in the presence of both emtricitabine and rilpivirine HCl): further increased | rate of degradation of tenofovir alafenamide hemifumarate (in the presence of emtricitabine): increased
